Literature values as cited in patent US20110274652A1, “Methods for Treating Hepatitis C Virus Infection” (VERTEX PHARMACEUTICALS INCORPORATED, priority 2008, published 2011).

Test system: Hepatitis C virus
Conditions: interferon alfa monotherapy, chronic hepatitis C

Substance: interferon alfa
- cases with long term remission: ~25%
